Laboratory results: patent publication US20260207554A1 (priority 2022, published 2026)
Structures can show the parent of a compound that is named as a salt.

Test system: adult nondependent recreational opioid users
Details: in vivo

Row | SMILES | Skin and subcutaneous tissue disorders, subjects with TEAE n (%) (human) | Abdominal pain upper, subjects with TEAE n (%) (human, po) | Dizziness, subjects with TEAE n (%) (human, po) | Gastrointestinal disorders, subjects with TEAE n (%) (human, po) | Generalised tonic-clonic seizure, subjects with TEAE n (%) (human, po) | Headache, subjects with TEAE n (%) (human, po) | Hiccups, subjects with TEAE n (%) (human, po) | Nervous system disorders, subjects with TEAE n (%) (human, po) | Number of subjects with at least one TEAE, n (%) (human, po) | Somnolence, subjects with TEAE n (%) (human, po) | Tension headache, subjects with TEAE n (%) (human, po) | Toothache, subjects with TEAE n (%) (human, po) | Tremor, subjects with TEAE n (%) (human, po) | Uvulitis, subjects with TEAE n (%) (human, po) | Vertigo, subjects with TEAE n (%) (human, po) | Vomiting, subjects with TEAE n (%) (human, po) | feeling hot, incidence of subjects (human, po) [%] | hot flush, incidence of subjects (human, po) [%] | subjects who experienced seizures (po)
1 | COc1ccc2c3c1O[C@H]1C(=O)CC[C@@]4(O)[C@@H](C2)N(C)CC[C@]314.Cl [Oxycodone HCl] | (29.5%) | 0 | (9.1%) | (27.3%) | 0% | (4.5%) | (6.8%) | (22.7%) | (56.8%) | (9.1%) | 0 | 0 | 0 | 0% | 0% | (15.9%) | 2.3 | 11.4 | –
2 | COc1cccc(C2(O)CCCCC2CN(C)C)c1 (centres unmarked) [Tramadol HCl] | (25.6%) | 0 | (2.6%) | (35.9%) | (5.1%) | (7.7%) | (2.6%) | – | (66.7%) | (7.7%) | 0 | 0 | 0 | (2.6%) | (2.6%) | – | 2.5 | 12.8 | two subjects experienced seizures
